The source of these data is the NIST ThermoML archive (doi:10.1021/je400205g).

± gives the expanded uncertainty stated by the source.

For this data set the following is noted: Transpiration method.

By vapor or sublimation pressure is commonly meant the equilibrium pressure above the liquid or solid. `O=C(O)C(F)(F)OC(F)(F)C(F)(F)OC(F)(F)F`: the “vapor or sublimation pressure” value is on record as 0.00451 ± 0.0011 kPa (263.15 K, Liquid); 0.02238 ± 0.0014 kPa (278.15 K, Liquid); 0.09288 ± 0.0041 kPa (293.15 K, Liquid); 0.3168 ± 0.013 kPa (308.15 K, Liquid).
For `CCOC(=O)C(F)(F)C(F)(F)C(F)(F)C(F)(F)C(F)(F)C(F)(F)C(F)(F)F` [ethyl perfluorooctanoate], in that order: 0.00516 ± 0.0011 kPa, 0.02313 ± 0.0014 kPa, 0.08988 ± 0.0038 kPa and 0.2649 ± 0.011 kPa.
As for `O=C(O)C(F)(F)C(F)(F)C(F)(F)C(F)(F)C(F)(F)F` [2,2,3,3,4,4,5,5,6,6,6-undecafluorohexanoic acid], the “vapor or sublimation pressure” value stood at 0.00126 ± 0.001 kPa (263.15 K, Crystal); 0.00294 ± 0.001 kPa (270.15 K, Crystal); 0.00791 ± 0.0011 kPa (278.15 K, Crystal); 0.0134 ± 0.0012 kPa (283.15 K, Crystal); 0.01726 ± 0.0014 kPa (285.15 K, Crystal); 0.03551 ± 0.0018 kPa (290.15 K, Crystal). In addition, the “vapor or sublimation pressure” value runs as follows: (293.15 K, Liquid) 0.044 ± 0.0022 kPa; (300.15 K, Liquid) 0.08434 ± 0.0037 kPa; (308.15 K, Liquid) 0.1656 ± 0.0068 kPa.
Turning to `C=CC(F)(F)C(F)(F)C(F)(F)C(F)(F)C(F)(F)C(F)(F)C(F)(F)C(F)(F)F`, the “vapor or sublimation pressure” value by setting is: (254.15 K, Liquid) 0.01269 ± 0.00078 kPa; (272.45 K, Liquid) 0.06823 ± 0.003 kPa; (290.75 K, Liquid) 0.2843 ± 0.012 kPa; (309.15 K, Liquid) 0.978 ± 0.039 kPa.
Take `OCCCC(F)(F)C(F)(F)C(F)(F)C(F)(F)F` [4,4,5,5,6,6,7,7,7-nonafluoro-1-heptanol]: the “vapor or sublimation pressure” value (255.65 K, Liquid) stood at 0.00087 ± 8e-05 kPa; the “vapor or sublimation pressure” value (273.15 K, Liquid) is listed as 0.00765 ± 0.00033 kPa; the “vapor or sublimation pressure” value (282.45 K, Liquid) is 0.02121 ± 0.00096 kPa; the “vapor or sublimation pressure” value (293.15 K, Liquid) is on record as 0.05717 ± 0.0027 kPa; the “vapor or sublimation pressure” value (309.15 K, Liquid) turned out to be 0.217 ± 0.0086 kPa.
